For 18 molecules, Ki and melting point results are on record in US20100227887A1 (priority 2009, published 2010).

pKi: −log10 of the molar value.

For one series, the target named is T1, human mGlu 5a receptor (Homo sapiens, UniProt P41594).
T1 construct: expressed in transfected cells; host or cells: EBNA cells (transient transfection); cell membrane homogenates
T1 sequence (P41594 21-1180 isoform P41594-2 limits assumed): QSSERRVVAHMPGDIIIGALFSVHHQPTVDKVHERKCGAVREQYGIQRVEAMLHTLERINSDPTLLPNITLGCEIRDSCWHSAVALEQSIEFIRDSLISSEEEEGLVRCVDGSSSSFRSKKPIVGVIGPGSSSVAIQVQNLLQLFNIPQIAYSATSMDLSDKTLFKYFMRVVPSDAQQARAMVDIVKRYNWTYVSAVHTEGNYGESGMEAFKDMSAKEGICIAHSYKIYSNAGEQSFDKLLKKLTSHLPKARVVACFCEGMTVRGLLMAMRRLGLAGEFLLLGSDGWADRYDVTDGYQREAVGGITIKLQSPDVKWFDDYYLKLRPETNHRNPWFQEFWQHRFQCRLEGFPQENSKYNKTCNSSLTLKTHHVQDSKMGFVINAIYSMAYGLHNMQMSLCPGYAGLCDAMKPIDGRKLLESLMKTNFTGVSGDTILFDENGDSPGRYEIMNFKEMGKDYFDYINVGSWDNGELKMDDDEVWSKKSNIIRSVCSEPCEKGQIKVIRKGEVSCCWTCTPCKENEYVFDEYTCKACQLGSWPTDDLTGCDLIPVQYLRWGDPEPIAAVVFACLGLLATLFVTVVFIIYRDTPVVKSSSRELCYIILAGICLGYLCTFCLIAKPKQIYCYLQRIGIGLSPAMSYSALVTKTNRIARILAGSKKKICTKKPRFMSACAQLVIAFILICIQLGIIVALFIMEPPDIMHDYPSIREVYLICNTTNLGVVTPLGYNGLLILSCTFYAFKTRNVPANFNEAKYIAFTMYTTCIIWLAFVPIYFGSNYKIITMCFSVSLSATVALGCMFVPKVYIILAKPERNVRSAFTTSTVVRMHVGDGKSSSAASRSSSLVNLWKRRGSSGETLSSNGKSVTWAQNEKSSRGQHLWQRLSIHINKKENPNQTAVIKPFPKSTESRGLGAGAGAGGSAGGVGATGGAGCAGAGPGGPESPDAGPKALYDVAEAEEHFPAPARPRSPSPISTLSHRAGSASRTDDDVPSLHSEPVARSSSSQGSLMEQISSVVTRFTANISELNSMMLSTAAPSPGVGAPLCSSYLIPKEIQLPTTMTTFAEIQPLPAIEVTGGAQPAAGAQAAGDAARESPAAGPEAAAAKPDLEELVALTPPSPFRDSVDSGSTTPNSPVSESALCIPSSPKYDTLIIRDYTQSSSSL
Briefly: [3H]MPEP competition binding on membranes of EBNA cells transfected with human mGlu 5a receptor. Particulars: [3H]MPEP (2 nM) competition, 1 h at 4° C., EBNA cell membranes. The method, then:
The pharmacological activity of the compounds was tested using the following method: For binding experiments, cDNA encoding human mGlu 5a receptor was transiently transfected into EBNA cells using a procedure described by Schlaeger and Christensen [Cytotechnology 15:1-13 (1998)]. Cell membrane homogenates were stored at −80° C. until the day of assay where upon they were thawed and resuspended and polytronised in 15 mM Tris-HCl, 120 mM NaCl, 100 mM KCl, 25 mM CaCl2, 25 mM MgCl2 binding buffer at pH 7.4 to a final assay concentration of 20 μg protein/well.
Saturation isotherms were determined by addition of twelve [^3H]MPEP concentrations (0.04-100 nM) to these membranes (in a total volume of 200 μl) for 1 h at 4° C. Competition experiments were performed with a fixed concentration of [^3H]MPEP (2 nM) and IC50 values of test compounds evaluated using 11 concentrations (0.3-10,000 nM). Incubations were performed for 1 h at 4° C.
At the end of the incubation, membranes were filtered onto unifilter (96-well white microplate with bonded GF/C filter preincubated 1 h in 0.1% PEI in wash buffer, Packard Bio-Science, Meriden, Conn.) with a Filtermate 96 harvester (Packard BioScience) and washed 3 times with cold 50 mM Tris-HCl, pH 7.4 buffer. Nonspecific binding was measured in the presence of 10 μM MPEP. The radioactivity on the filter was counted (3 min) on a Packard Top-count microplate scintillation counter with quenching correction after addition of 45 μl of microscint 40 (Canberra Packard S. A., Zürich, Switzerland) and shaking for 20 min.
For binding experiments the Ki values of the compounds tested are given. The Ki value is defined by the following formula: […]
in which the IC50 values are those concentrations of the compounds tested which cause 50% inhibition of the competing radioligand ([^3H]MPEP). L is the concentration of radioligand used in the binding experiment and the Kd value of the radioligand is empirically determined for each batch of membranes prepared.
What is called pKi is the Ki on a negative log10 scale, so that one unit is a factor of ten. For the molecule `Cc1cc(C#N)c(C)c(C(=O)Nc2ccc(Cl)cn2)n1` [Example 29, 4-Cyano-3,6-dimethyl-pyridine-2-carboxylic acid (5-chloro-pyridin-2-yl)-amide], the pKi was 7.01.

Regarding `Cc1csc(NC(=O)c2nc(C)cc(C#N)c2C)n1` [Example 30, 4-Cyano-3,6-dimethyl-pyridine-2-carboxylic acid (4-methyl-thiazol-2-yl)-amide], the pKi was 7.43.

For `Cc1cc(Cl)cc(C(=O)Nc2cccc(Cl)n2)n1` [Example 35, 4-Chloro-6-methyl-pyridine-2-carboxylic acid (6-chloro-pyridin-2-yl)-amide], the pKi is 7.47.

Turning to `Cc1cccc(NC(=O)c2cc(Cl)cc(C)n2)n1` [Example 36, 4-Chloro-6-methyl-pyridine-2-carboxylic acid (6-methyl-pyridin-2-yl)-amide], the pKi is 7.82.

Turning to `Cc1cc(Cl)cc(C(=O)Nc2cccc(Cl)c2)n1` [Example 37, 4-Chloro-6-methyl-pyridine-2-carboxylic acid (3-chloro-phenyl)-amide], the negative-log Ki (pKi) was 7.26.

As to `Cc1cc(C#N)cc(C(=O)Nc2ccc(F)c(Cl)c2)n1` [Example 38, 4-Cyano-6-methyl-pyridine-2-carboxylic acid (3-chloro-4-fluoro-phenyl)-amide], the pKi is 7.57.

Consider `N#Cc1cc(CO)nc(C(=O)Nc2cccc(Cl)c2)c1` [Example 40, 4-Cyano-6-hydroxymethyl-pyridine-2-carboxylic acid (3-chloro-phenyl)-amide], for which the pKi is 7.36.

In the case of `Cc1cc(C#N)cc(C(=O)Nc2cccc(F)c2)n1` [Example 41, 4-Cyano-6-methyl-pyridine-2-carboxylic acid (3-fluoro-phenyl)-amide], the pKi was 8.05.

`Cc1cc(C#N)cc(C(=O)Nc2ccc(F)c(F)c2)n1` [Example 42, 4-Cyano-6-methyl-pyridine-2-carboxylic acid (3,4-difluoro-phenyl)-amide]: the negative-log Ki (pKi) is 6.93.

For `Cc1cccc(NC(=O)c2cc(C#N)cc(C)n2)c1` [Example 43, 4-Cyano-6-methyl-pyridine-2-carboxylic acid m-tolylamide], the pKi is 8.05.

As for `Cc1cc(C#N)cc(C(=O)Nc2cccc(C(F)(F)F)c2)n1` [Example 44, 4-Cyano-6-methyl-pyridine-2-carboxylic acid (3-trifluoromethyl-phenyl)-amide], the pKi is 7.38.

For the molecule `COc1cccc(NC(=O)c2cc(C#N)cc(C)n2)c1` [Example 45, 4-Cyano-6-methyl-pyridine-2-carboxylic acid (3-methoxy-phenyl)-amide], the pKi is 7.24.

`N#Cc1cc(CO)nc(C(=O)Nc2ccc(F)cn2)c1` [Example 46, 4-Cyano-6-hydroxymethyl-pyridine-2-carboxylic acid (5-fluoro-pyridin-2-yl)-amide]: the pKi was 6.95.

Take `Cc1cccc(NC(=O)c2cc(C#N)cc(C)n2)n1` [Example 47, 4-Cyano-6-methyl-pyridine-2-carboxylic acid (6-methyl-pyridin-2-yl)-amide]: the pKi is 7.74.

With `Cc1cc(C#N)cc(C(=O)Nc2ccnc(F)c2)n1` [Example 48, 4-Cyano-6-methyl-pyridine-2-carboxylic acid (2-fluoro-pyridin-4-yl)-amide], the pKi is 7.48.

With `Cc1cc(C#N)cc(C(=O)Nc2ccc(F)c(C)c2)n1` [Example 49, 4-Cyano-6-methyl-pyridine-2-carboxylic acid (4-fluoro-3-methyl-phenyl)-amide], the pKi is 7.14.

Regarding `Cc1cc(NC(=O)c2cc(C#N)cc(C)n2)ccn1` [Example 50, 4-Cyano-6-methyl-pyridine-2-carboxylic acid (2-methyl-pyridin-4-yl)-amide], the pKi is 7.00.

Turning to `Cc1cccc(NC(=O)c2cc(Cl)cc(C)n2)c1` [Example 51, 4-Chloro-6-methyl-pyridine-2-carboxylic acid m-tolylamide], the pKi is 7.01.

System in a further series: not given
Test: not given
Conditions: not given
The melting point is the temperature, or range, at which the solid turns liquid. For `Cc1cc(C#N)c(C)c(C(=O)Nc2ccc(Cl)cn2)n1` [Example 29, 4-Cyano-3,6-dimethyl-pyridine-2-carboxylic acid (5-chloro-pyridin-2-yl)-amide], the melting point stood at 264 °C.

Take `Cc1csc(NC(=O)c2nc(C)cc(C#N)c2C)n1` [Example 30, 4-Cyano-3,6-dimethyl-pyridine-2-carboxylic acid (4-methyl-thiazol-2-yl)-amide]: the melting point was 199.5 °C.

As for `Cc1cc(Cl)cc(C(=O)Nc2cccc(Cl)n2)n1` [Example 35, 4-Chloro-6-methyl-pyridine-2-carboxylic acid (6-chloro-pyridin-2-yl)-amide], the melting point turned out to be 176 °C.

The molecule `Cc1cccc(NC(=O)c2cc(Cl)cc(C)n2)n1` [Example 36, 4-Chloro-6-methyl-pyridine-2-carboxylic acid (6-methyl-pyridin-2-yl)-amide] displayed a melting point of 130.5 °C.

For `Cc1cc(Cl)cc(C(=O)Nc2cccc(Cl)c2)n1` [Example 37, 4-Chloro-6-methyl-pyridine-2-carboxylic acid (3-chloro-phenyl)-amide], the melting point was 174 °C.

Molecule `Cc1cc(C#N)cc(C(=O)Nc2ccc(F)c(Cl)c2)n1` [Example 38, 4-Cyano-6-methyl-pyridine-2-carboxylic acid (3-chloro-4-fluoro-phenyl)-amide] yielded a melting point of 204 °C.

The molecule `N#Cc1cc(CO)nc(C(=O)Nc2cccc(Cl)c2)c1` [Example 40, 4-Cyano-6-hydroxymethyl-pyridine-2-carboxylic acid (3-chloro-phenyl)-amide] came in with a melting point of 167 °C.

With `Cc1cc(C#N)cc(C(=O)Nc2cccc(F)c2)n1` [Example 41, 4-Cyano-6-methyl-pyridine-2-carboxylic acid (3-fluoro-phenyl)-amide], the melting point worked out at 139 °C.

Take `Cc1cc(C#N)cc(C(=O)Nc2ccc(F)c(F)c2)n1` [Example 42, 4-Cyano-6-methyl-pyridine-2-carboxylic acid (3,4-difluoro-phenyl)-amide]: the melting point stood at 170 °C.

`Cc1cccc(NC(=O)c2cc(C#N)cc(C)n2)c1` [Example 43, 4-Cyano-6-methyl-pyridine-2-carboxylic acid m-tolylamide] had a melting point of 160 °C.

As to `Cc1cc(C#N)cc(C(=O)Nc2cccc(C(F)(F)F)c2)n1` [Example 44, 4-Cyano-6-methyl-pyridine-2-carboxylic acid (3-trifluoromethyl-phenyl)-amide], the melting point is 167 °C.

In the case of `COc1cccc(NC(=O)c2cc(C#N)cc(C)n2)c1` [Example 45, 4-Cyano-6-methyl-pyridine-2-carboxylic acid (3-methoxy-phenyl)-amide], the melting point worked out at 189 °C.

Regarding `N#Cc1cc(CO)nc(C(=O)Nc2ccc(F)cn2)c1` [Example 46, 4-Cyano-6-hydroxymethyl-pyridine-2-carboxylic acid (5-fluoro-pyridin-2-yl)-amide], the melting point is 232.5 °C.

`Cc1cccc(NC(=O)c2cc(C#N)cc(C)n2)n1` [Example 47, 4-Cyano-6-methyl-pyridine-2-carboxylic acid (6-methyl-pyridin-2-yl)-amide]: the melting point was 243.5 °C.

In turn, `Cc1cc(C#N)cc(C(=O)Nc2ccnc(F)c2)n1` [Example 48, 4-Cyano-6-methyl-pyridine-2-carboxylic acid (2-fluoro-pyridin-4-yl)-amide] gave a melting point of 246.5 °C.

`Cc1cc(C#N)cc(C(=O)Nc2ccc(F)c(C)c2)n1` [Example 49, 4-Cyano-6-methyl-pyridine-2-carboxylic acid (4-fluoro-3-methyl-phenyl)-amide] had a melting point of 177 °C.

For the molecule `Cc1cc(NC(=O)c2cc(C#N)cc(C)n2)ccn1` [Example 50, 4-Cyano-6-methyl-pyridine-2-carboxylic acid (2-methyl-pyridin-4-yl)-amide], the melting point was 302 °C.

Consider `Cc1cccc(NC(=O)c2cc(Cl)cc(C)n2)c1` [Example 51, 4-Chloro-6-methyl-pyridine-2-carboxylic acid m-tolylamide], for which the melting point came out at 95 °C.
